This note sets out measurements from patent US20250230193A1, “CYCLIC COMPOUND HAVING SELECTIVE KRAS INHIBITORY EFFECT ON HRAS AND NRAS” (CHUGAI SEIYAKU KABUSHIKI KAISHA, priority 2022, published 2025).

For assay [1], the target named is GDP-bound NRAS wild-type protein (Homo sapiens, UniProt P01111). In words: Binding to NRAS by surface plasmon resonance (SPR), Single Cycle Kinetics. Particulars: for NRAS/KRAS (ratio of KD value with respect to GDP-bound NRAS wild-type protein to KD value with respect to KRAS): class symbols. Background: In SPR one partner is held on a chip, and binding of the other changes the refractive index at the surface.

For assay [2], the target named is GDP-bound HRAS wild-type protein (Homo sapiens, UniProt P01112). Put plainly: Binding to HRAS by surface plasmon resonance (SPR), Single Cycle Kinetics. Particulars: for HRAS/KRAS (ratio of KD value with respect to GDP-bound HRAS wild-type protein to KD value with respect to KRAS): class symbols.
Where [3] appears, read: KD ratio, GDP-bound NRAS wild-type vs GDP-bound KRAS wild-type, SPR.
Setting [4] is: KD ratio, GDP-bound HRAS wild-type vs GDP-bound KRAS wild-type, SPR.

*1 amine or outer side, *2 acyl side, *3 side chain or, on linkers, in order; H or OH if unused. Where a SMILES comes first, the peptide text is derived from it. Bridges are numbered along the chain shown (N, C = ends). [ ]: non-standard residue; d: D form. The star is where a group is joined. hPhe(3-Cl-4-CF3) = N[C@@H](CCc1ccc(C(F)(F)F)c(Cl)c1)C(=O)O; NPrPhe(4-CF3) = CCCN[C@@H](Cc1ccc(C(F)(F)F)cc1)C(=O)O; X38 = C[C@@H]1CN([*:1])[C@@H]1C(=O)[*:2]; NMeGly(cPent) = CN[C@H](C(=O)O)C1CCCC1; Gly(cPent) = N[C@H](C(=O)O)C1CCCC1; NMeD = CN[C@@H](CC(=O)O)C(=O)O; NMeL = CN[C@@H](CC(C)C)C(=O)O; Morpholide = C1CN(*)CCO1; Ac5c = NC1(C(=O)O)CCCC1; NEtG = CCNCC(=O)O; Sar = CNCC(=O)O

Chain of GDP-bound NRAS wild-type protein (P01111 whole entry): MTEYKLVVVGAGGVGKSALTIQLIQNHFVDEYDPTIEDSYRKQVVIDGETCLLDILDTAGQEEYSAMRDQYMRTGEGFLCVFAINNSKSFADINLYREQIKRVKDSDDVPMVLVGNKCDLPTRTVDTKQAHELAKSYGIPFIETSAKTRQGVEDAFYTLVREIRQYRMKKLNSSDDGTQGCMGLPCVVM
Chain of GDP-bound HRAS wild-type protein (P01112 whole entry): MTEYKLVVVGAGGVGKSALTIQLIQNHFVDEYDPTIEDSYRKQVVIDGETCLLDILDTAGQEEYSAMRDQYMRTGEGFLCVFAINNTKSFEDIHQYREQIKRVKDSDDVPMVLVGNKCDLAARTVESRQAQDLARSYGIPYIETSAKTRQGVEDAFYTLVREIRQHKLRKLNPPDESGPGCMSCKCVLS

For `CCC[C@H]1C(=O)N[C@@H]([C@@H](C)CC)C(=O)N(C2CC2)CC(=O)N(C)[C@H]2C/C=C\CCN(C2=O)[C@@H](Cc2ccc(C)cc2)C(=O)N(C)CC(=O)N[C@@H](CCc2ccc(C(F)(F)F)c(CC)c2)C(=O)N2C[C@H](OCC)C[C@H]2C(=O)NC2(CC(C)(C)C2)C(=O)N(C)[C@@H](C2CCCC2)C(=O)N(C)[C@H](C(=O)N(C)C)CC(=O)N1C` [PP2870], the “NRAS/KRAS (ratio of KD value with respect to GDP-bound NRAS wild-type protein to KD value with respect to KRAS)” value in assay [1] is “A (a compound having 10 or more and less than 20 is denoted as A)”. Also, the “HRAS/KRAS (ratio of KD value with respect to GDP-bound HRAS wild-type protein to KD value with respect to KRAS)” value in assay [2] is “A (a compound having 10 or more and less than 20 is denoted as A)”.

`CCC[C@H]1C(=O)N[C@@H](CC(C)C)C(=O)N2C[C@@H](OC)C[C@H]2C(=O)N(C)[C@H]2C/C=C\CCN(C2=O)[C@@H](Cc2ccc(C)cc2)C(=O)N(C)CC(=O)N[C@@H](CCc2cc(F)c(C(F)(F)F)c(F)c2)C(=O)N2C[C@H](OCC)C[C@H]2C(=O)NC2(CC(C)(C)C2)C(=O)N(C)[C@@H](C2CCCC2)C(=O)N(C)[C@H](C(=O)N(C)C)CC(=O)N1C` [PP2553]: the “NRAS/KRAS (ratio of KD value with respect to GDP-bound NRAS wild-type protein to KD value with respect to KRAS)” value in assay [1] was “A (a compound having 10 or more and less than 20 is denoted as A)”. The “HRAS/KRAS (ratio of KD value with respect to GDP-bound HRAS wild-type protein to KD value with respect to KRAS)” value in assay [2] is “B (a compound having 3 or more and less than 10 is denoted as B)”.

As for `CCCN1C(=O)CN(C)C(=O)[C@@H]2[C@H](C)CN2C(=O)[C@H]([C@@H](C)CC)NC(=O)[C@H](CC(C)C)N(C)C(=O)C[C@@H](C(=O)N2CCOCC2)N(C)C(=O)[C@H](C2CCCC2)N(C)C(=O)C2(CCCC2)NC(=O)[C@@H]2CCCN2C(=O)[C@H](CCc2ccc(C(F)(F)F)c(Cl)c2)NC(=O)CN(C)C(=O)[C@@H]1Cc1ccc(C(F)(F)F)cc1` [PP0257] ([NMeL]I[X38][Sar][NPrPhe(4-CF3)][Sar][hPhe(3-Cl-4-CF3)]P[Ac5c][NMeGly(cPent)][NMeD]-Morpholide; lactam N-11), the “NRAS/KRAS (ratio of KD for GDP-bound NRAS wild-type to KD for KRAS)” value in assay [1] (SPR) was “B (a compound having 3 or more and less than 10 is denoted as B)”. The “HRAS/KRAS (ratio of KD for GDP-bound HRAS wild-type to KD for KRAS)” value in assay [2] (SPR) was “B (a compound having 3 or more and less than 10 is denoted as B)”.

Turning to `CCO[C@@H]1C[C@H]2C(=O)NC3(CCC3)C(=O)N(C)[C@@H](C3CCCC3)C(=O)N(C)[C@H](C(=O)N(C)C)CC(=O)N(C)[C@@H](CC)C(=O)N[C@@H]([C@@H](C)CC)C(=O)N3CC[C@H]3C(=O)N(C)[C@H]3C[C@@H](C)CCN(C3=O)[C@@H](Cc3ccc(C(F)(F)F)cc3)C(=O)N(C)CC(=O)N[C@@H](CCc3cc(F)c(C(F)(F)F)c(F)c3)C(=O)N2C1` [PP1021], the “NRAS/KRAS (ratio of KD value with respect to NRAS to KD value with respect to KRAS)” value in assay [1] (setting [3]) is “C (A compound having a KD ratio of 0.1 or more and less than 3 is denoted as C)”. The “HRAS/KRAS (ratio of KD value with respect to HRAS to KD value with respect to KRAS)” value in assay [2] (setting [4]) is “B (a compound having 3 or more and less than 10 is denoted as B)”.

Take `CCCN1C(=O)CN(C)C(=O)CN(CC)C(=O)[C@H](C2CCCC2)NC(=O)[C@H](CC(C)C)N(C)C(=O)C[C@@H](C(=O)N2CCOCC2)N(C)C(=O)[C@H](C2CCCC2)N(C)C(=O)C2(CCCC2)NC(=O)[C@@H]2CCCN2C(=O)[C@H](CCc2ccc(C(F)(F)F)c(Cl)c2)NC(=O)CN(C)C(=O)[C@@H]1Cc1ccc(C(F)(F)F)cc1` [PP0293] ([NMeL][Gly(cPent)][NEtG][Sar][NPrPhe(4-CF3)][Sar][hPhe(3-Cl-4-CF3)]P[Ac5c][NMeGly(cPent)][NMeD]-Morpholide; lactam N-11): the “NRAS/KRAS (ratio of KD for GDP-bound NRAS wild-type to KD for KRAS)” value in assay [1] (SPR) is “B (a compound having 3 or more and less than 10 is denoted as B)”. Besides, the “HRAS/KRAS (ratio of KD for GDP-bound HRAS wild-type to KD for KRAS)” value in assay [2] (SPR) was “C (A compound having a KD ratio of 0.1 or more and less than 3 is denoted as C)”.

Consider `CC[C@H](C)[C@@H]1NC(=O)[C@H](C2CCC2)N(C)C(=O)C[C@@H](C(=O)N(C)C)N(C)C(=O)[C@H](C2CCCC2)N(C)C(=O)C2(CC(C)(C)C2)NC(=O)[C@@H]2C[C@H](C)CN2C(=O)[C@H](CCc2ccc(C(F)(F)F)c(OC)c2)NC(=O)CN(C)C(=O)[C@H](Cc2ccc(C(F)(F)F)cc2)N2CC/C=C\C[C@@H](C2=O)N(C)C(=O)CN(C)C1=O` [PP2011], for which, in assay [1] (setting [3]), the “NRAS/KRAS (ratio of KD value for NRAS to KD value for KRAS)” value was “A (a compound having 10 or more and less than 20 is denoted as A)”. Moreover, in assay [2] (setting [4]), the “HRAS/KRAS (ratio of KD value for HRAS to KD value for KRAS)” value was “A (a compound having 10 or more and less than 20 is denoted as A)”.

`CCO[C@@H]1C[C@H]2C(=O)NC3(CC(C)(C)C3)C(=O)N(C)[C@@H](C3CCCCC3)C(=O)N(C)[C@H](C(=O)N(C)C)CC(=O)N(C)[C@@H](COC)C(=O)N[C@@H]([C@@H](C)CC)C(=O)N(C3CC3)CC(=O)N(C)[C@H]3C/C=C\CCN(C3=O)[C@@H](Cc3ccc(C(F)(F)F)cc3)C(=O)N(C)CC(=O)N[C@@H](CCc3cc(F)c(C(F)(F)F)c(F)c3)C(=O)N2C1` [PP2657]: the “NRAS/KRAS (ratio of KD value with respect to GDP-bound NRAS wild-type protein to KD value with respect to KRAS)” value in assay [1] was “A (a compound having 10 or more and less than 20 is denoted as A)”. Further, the “HRAS/KRAS (ratio of KD value with respect to GDP-bound HRAS wild-type protein to KD value with respect to KRAS)” value in assay [2] was “A (a compound having 10 or more and less than 20 is denoted as A)”.
